Data from patent publication US20110300234A1, “Methods of Treating Tumor Cells Using RHCC Protein, Fragment or Variant” (priority 2008, published 2011).
No end group written: not given here.

Tests used:
[1] = system: 8226/dox40 resistant myeloma sub-line; assay: Fluorometric microculture cytotoxicity assay (FMCA); type: cell-based, human; settings: 8226/dox40, FMCA 72 hr, cisplatin concentration; read-out: IC50 (95% confidence interval)
Procedure: (§1) FaDu is grown in DMEM and 10% heat-inactivated FBS, 0.1 mM MEM non-essential amino acids, 1.2 mM sodium pyruvate, 24 mM HEPES, with penicillin and streptomycin. MDA 231, a breast cancer cell line, RPMI 8226, a myeloma cell line, its resistant sub-line 8226/Dox40, NCI-H69, a small lung cancer cell line, its resistant sub-line H69AR, ACHN, a primary resistant renal adenocarcinoma, the ovarian carcinoma cell line A2780, and its resistant sub-line, A2780-Cis, are all grown in RPMI-1640 with 10% heat-inactivated FCS, 2 mM glutamine, penicillin and streptomycin. hTERT-RPE1 a normal epithelial telomerase immortalized line is grown in DMEM nutrient mixture F-12 Ham with 10% heat-inactivated FCS, 2 mM glutamine, penicillin and streptomycin. Tumor cells obtained from 3 ovarian carcinoma patients (OC1-OC3) after ethical approval (Uppsala University ethical committee) are isolated by collagenase dispersion and Percoll density gradient centrifugation (GE Healthcare Life Sciences, Uppsala, Sweden) (see Csoka et al, Gynecol. Oncol., 54(2):163-70 (1994)). […] For experiments, frozen cells are thawed, washed twice and kept in RPMI 1640.
(§2) Microtitre plates (Nunc, Roskilde, Denmark) are prepared with 20 μl/well of drug solution 10 times the desired concentration. To evaluate the cytotoxic activity, the drug plates are seeded with 2×10^4 cells/180 μl/well. A column without drugs serves as a control, and a column with medium serves as a blank FMCA is based on measurements of fluorescence generated from hydrolysis of fluorescein diacetate (FDA) to fluorescein by cells with intact plasma membrane (see Larsson et al, Int. J. Cancer, 50(2):177-85 (1992)). The plates are incubated at 37° C. for 72 hr, washed in PBS, whereafter FDA (dissolved in PBS, 10 μg/ml) is added at 100 μl/well. Plates are then incubated for 50 min, and fluorescence/well is measured at 538 nm in a scanning fluorometer (Fluoroscan II, Labsystems Oy, Helsinki, Finland). Fluorescence is proportional to the number of viable cells/well. Quality criteria for successful analysis includes a fluorescence signal in control wells of more than 5 times mean blank value and a mean coefficient of variation in control wells of less than 30%. Experiments were repeated 3 times.
(§3) FMCA data is processed by GraphPad Prism (GraphPad Software, Inc. San Diego, Calif.) with non-linear regression to a standard sigmoidal dose-response model. Zero and 100% cell survival are set as the maximum effect and the baseline, and IC50 (inhibitory concentration 50%) is estimated. For drugs not resulting in 50% reduction of cell survival, the IC50 was set to>the highest concentration tested.

[2] = system: A2780 ovarian carcinoma cell line; assay: as above; type: cell-based, human; settings: A2780, FMCA 72 hr, highest concentration tested 10 μM; read-out: IC50 (95% confidence interval)
Procedure: as §1, §2, §3

[3] = system: A2780cis resistant ovarian carcinoma sub-line; assay: as above; type: cell-based, human; settings: FMCA 72 hr, highest concentration tested 10 μM, read-out: IC50 (95% confidence interval)
Procedure: as §1, §2, §3

[4] = system: ACHN renal adenocarcinoma cell line; assay: as above; type: cell-based, human; settings: FMCA 72 hr, cisplatin concentration, read-out: IC50 (95% confidence interval)
Procedure: as §1, §2, §3

[5] = system: FaDu head and neck squamous cell carcinoma cell line; assay: as above; type: cell-based, human; settings: FMCA 72 hr, cisplatin concentration, read-out: IC50 (95% confidence interval)
Procedure: as §1, §2, §3

[6] = system: H69AR resistant small-cell lung cancer sub-line; assay: as above; type: cell-based, human; settings: FMCA 72 hr, cisplatin concentration, read-out: IC50 (95% confidence interval)
Procedure: as §1, §2, §3

[7] = system: MDA 231 breast cancer cell line; assay: as above; type: cell-based, human; settings: MDA 231, FMCA 72 hr, cisplatin concentration; read-out: IC50 (95% confidence interval)
Procedure: as §1, §2, §3

[8] = system: NCI-H69 small-cell lung cancer cell line; assay: as above; type: cell-based, human; settings: NCI-H69, FMCA 72 hr, highest concentration tested 10 μM; read-out: IC50 (95% confidence interval)
Procedure: as §1, §2, §3

[9] = system: RPMI 8226/S myeloma cell line; assay: as above; type: cell-based, human; settings: FMCA 72 hr, cisplatin concentration, read-out: IC50 (95% confidence interval)
Procedure: as §1, §2, §3

[10] = system: h-TERT-RPE1 normal epithelial telomerase immortalized cell line; assay: as above; type: cell-based, human; settings: h-TERT-RPE1, FMCA 72 hr, highest concentration tested 10 μM; read-out: IC50 (95% confidence interval)
Procedure: Microtitre plates (Nunc, Roskilde, Denmark) are prepared with 20 μl/well of drug solution 10 times the desired concentration. […] Fluorescence is proportional to the number of viable cells/well. Quality criteria for successful analysis includes a fluorescence signal in control wells of more than 5 times mean blank value and a mean coefficient of variation in control wells of less than 30%. Experiments were repeated 3 times.

[11] = system: FaDu-cells s.c. in SCID-mice; assay: In vivo tumor reduction assay; parameters: species or system mouse
Excerpt: Mice are palpated and weighed 3 times/week, and euthanized if the tumor diameter exceeded 10 mm or if weight decreased below 80% of starting weight, according to ethical guidelines.

10 cell lines = assay: FMCA, statements over the panel of cell lines; type: cell-based, human; settings: tested concentrations, starting at 3.48 μM, all cell types
Procedure: (§4) FaDu is grown in DMEM and 10% heat-inactivated FBS, 0.1 mM MEM non-essential amino acids, 1.2 mM sodium pyruvate, 24 mM HEPES, with penicillin and streptomycin. […]
as §2, with “To evaluate the cytotoxic activity, the drug plates are seeded with 2×10^4 cells/180 μl/well.” left out, “The plates are incubated at 37° C. for 72 hr, washed in PBS, whereafter FDA (dissolved in PBS, 10 μg/ml) is added at 100 μl/well.” left out, “Experiments were repeated 3 times.” left out

[12] = system: primary human tumor cells from ovarian carcinoma patients (OC1-OC3); assay: FMCA in primary human tumor cells; type: cell-based; settings: cell lines and patient samples tested
Procedure: as §4
as §2, with “To evaluate the cytotoxic activity, the drug plates are seeded with 2×10^4 cells/180 μl/well.” left out, “The plates are incubated at 37° C. for 72 hr, washed in PBS, whereafter FDA (dissolved in PBS, 10 μg/ml) is added at 100 μl/well.” left out, “Experiments were repeated 3 times.” left out

[13] = system: RHCC-specific antibodies in Balb/c-mice; assay: ELISA of antibody response to RHCC in sera; type: in vivo, mouse; settings: 14 days after i.v. 0.4 or 0.2 mg RHCC
Procedure: The antibody response to RHCC in sera from Balb/c-mice collected 14 days after i.v. injection of 0.4 or 0.2 mg RHCC (2 mice/group), or 0.1 M NaCl (one mouse), is measured by ELISA. Microtitre plates (BD Biosciences, San Diego, Calif., USA) are coated with 5 μg/ml RHCC in 0.1 M carbonate-buffer pH 9.6 per well o.n. at 4° C. Plates are blocked in blocking solution (5% milk powder, 0.2% Tween in PBS) for 1 hr at room temperature. Serial dilutions of mouse sera in blocking solution (1:50-1:1350) is added in duplicates to the wells. After 1 hr at room temperature, plates are washed and incubated with secondary alkaline phosphatase (AP) conjugated goat-anti mouse IgG antibody (Sigma-Aldrich, Stockholm, Sweden). Plates are washed and developed with nitrophenylphosphate (pNPP) (Sigma-Aldrich, Stockholm, Sweden) and absorbance is measured at 405 nm in a VersaMax microplate reader (Molecular Devices, Sunnyvale, Calif., USA).

murine dendritic cells = assay: Dendritic cell (DC) maturation assay; type: cell-based, mouse; settings: 50 μg/ml RHCC, 24 hr, vs unstimulated cells
Procedure: Murine bone marrow-derived dendritic cells (BMDCs) are generated according to Lutz et al, J. Immunol. Methods, 223(1):77-92 (1999), and murine splenic DCs are purified using CD11c (N418) MicroBeads (Miltenyi Biotec, Auburn, Calif., USA) according to the manufacturer. DCs are seeded in 24-well plates (BD Biosciences, San Diego, Calif., USA) at 10^6 cells/ml in R10 medium and mixed with 50 μg/ml RHCC. LPS 1 μg/ml (Sigma-Aldrich, Stockholm, Sweden) is used as positive control. After 24 hr stimulation, DCs are stained with PE-conjugated antibodies to CD40, CD80 and CD86 and FITC-conjugated antibody to MHC Class II I-Ab (BD Biosciences Pharmingen, San Diego, Calif., USA) 30 min at 4° C., washed twice in PBS with 0.1% BSA and analyzed by flow cytometry. IL-12 production is analyzed by ELISA according to the manufacturer (Mabtech, Nacka, Sweden). Plates are coated with 2 μg/ml of anti-IL-12 capture antibody o.n, then after blocking, 100 μl of BMDC culture supernatants are added at dilutions 1:1-1:128 for 2 hr at RT. Plates are thereafter incubated with biotinylated anti-IL-12 antibody 1 hr at room temperature, and the response is visualized as above for ELISA.

[14] = background statement; cited from earlier work
Balb/c mice = assay: Tolerability in mice after RHCC injection; settings: after injection with endotoxin purified RHCC
[15] = system: IFNγ-secreting splenocytes of Balb/c-mice; assay: IFN-γ EliSpot assay of splenocytes after RHCC injection; settings: 7 days after i.v. 0.4 or 0.2 mg RHCC

With `N.N.[Cl][Pt][Cl]` [Cisplatin, Cis-diammine-dichloroplatinum (II)] the IC50 [1] was greater than 10 µM, the IC50 [2] was greater than 10 µM and the IC50 [3] was greater than 10 µM. The IC50 [4] was 6.9 µM, the IC50 [5] was 7.9 µM and the IC50 [6] was 8.5 µM. For the same compound, the IC50 [7] was greater than 10 µM, the IC50 [8] was greater than 10 µM and the IC50 [9] was 7.44 µM. The IC50 [10] was greater than 10 µM and the alteration in weight ([11]; i.v., during the experiment) was “no significant alteration in weight”.

In the case of “RHCC: Recombinant Right-Handed Coiled-Coil protein tetramer of Tetrabrachion (Staphylothermus marinus), strands of SEQ ID NO:1, purified from endotoxins (GSIINETADDIVYRLTVIIDDRYESLKNLITLRADRLEMIINDNVSTILASI; also: tetramer)”, the “toxicity of RHCC alone” value (10 cell lines) is reported as “nontoxic”, the “cytotoxic effect of RHCC alone” value [12] is reported as “no cytotoxic effect” and the “tumor reduction, RHCC alone” value ([11]; 0.675 mg RHCC, separate experiment) is reported as “no effect on tumor reduction”. For the same compound, the “RHCC-specific antibody response (ELISA)” value [13] was “no significant antibody response”, the CD40 expression (murine dendritic cells) was “weak increase” and the IL-12 production (murine dendritic cells) was “weak increase”. The “maturation markers CD80, CD86 and MHC Class II” value (murine dendritic cells) was “no increase”, the “temperature at which stable” value [14] was “over 100 °C” and the “signs of illness (viability, weight)” value (Balb/c mice) was “no signs of illness”. For the same compound, the “IFNγ-EliSpot T cell response” value [15] was “slight production of specific CD8+ T cells”.
